Assay results from paper PMC10192561 (Frontiers in Pharmacology, 2023).
Entries after “also recorded” stand apart in the source; their conditions may differ. Like-named read-outs stand apart in the source and are kept apart here.

Columns and labels:
[1] = Pharmacokinetics of flumatinib and M1 in SD rats with or without isavuconazole; assay type: in vivo, Sprague-Dawley male rats; conditions: for AUC(0-inf) / AUC(0-t) / Cmax / Tmax / half-life / CL/F / MRT last / MRT inf: male, Sprague-Dawley, rat, plasma, po, 60 mg/kg; for CL/F: read-out: CLz/F (converted); for MRT last: read-out: MRT0→t; for MRT inf: read-out: MRT0→∞
Experimental: Quantification of the analytes was made by using a Waters XEVO TQS triple quadruple mass spectrometer with a multiple reaction monitoring (MRM) in positive ion mode. The mobile phase was consisted of 0.1% formic acid aqueous solution (A) and acetonitrile (B) at a flow rate of 0.4 mL/min. An elution program of 90% A (0–0.5 min), 90%–10% A (0.5–1.0 min), 10% A (1–1.5 min), 10%–90% A (1.5–1.6 min) and 90% A (1.6–2 min) was performed. The whole elution took 2 min. During the analysis, the temperature of the column and autosampler rack was controlled at 40°C and 10°C, respectively.
Sprague–Dawley male rats (SD male rats, 200 ± 20 g) were purchased from the Animal Experimental Center of The First Affiliated Hospital of Wenzhou Medical University (Zhejiang, China). […] The rats in both groups started fasting for 12 h ahead of the experiment, but were free to water. […] Tail vein blood samples were collected from rats in both groups at multiple time points (0.67, 1, 1.5, 2, 3, 4, 6, 8, 12, and 24 h). Subsequently, an additional 300 μL acetonitrile and 20 μL dasatinib (200 ng/mL) were added to 100 μL plasma. Then the mixture was vortexed to mix thoroughly for 2 min and centrifuged at 13,000 rpm for 10 min to obtain the final supernatant for UPLC-MS/MS analysis.
IC50 and enzyme kinetic parameters were obtained using GraphPad Prism 8.0 software (GraphPad software Inc., CA, United States). Non-compartmental analysis was performed by using Drugs and Statistics (DAS) software (version 3.0 software, Shanghai University of Traditional Chinese Medicine, China) to obtain pharmacokinetic profiles. Mean plasma concentration-time curves were generated using Origin 8.0, and the parameters were statistically investigated between groups using independent samples t-test by SPSS 24.0 software (SPSS Inc., Chicago, IL, United States). All data were expressed as mean ± SD and p < 0.05 was considered statistically significant.

[2] = target: flumatinib metabolism in HLM (Homo sapiens, UniProt P08684); assay: Inhibition of flumatinib metabolism in human liver microsome incubation (UPLC-MS/MS)
Sequence of flumatinib metabolism in HLM (P08684 2-503): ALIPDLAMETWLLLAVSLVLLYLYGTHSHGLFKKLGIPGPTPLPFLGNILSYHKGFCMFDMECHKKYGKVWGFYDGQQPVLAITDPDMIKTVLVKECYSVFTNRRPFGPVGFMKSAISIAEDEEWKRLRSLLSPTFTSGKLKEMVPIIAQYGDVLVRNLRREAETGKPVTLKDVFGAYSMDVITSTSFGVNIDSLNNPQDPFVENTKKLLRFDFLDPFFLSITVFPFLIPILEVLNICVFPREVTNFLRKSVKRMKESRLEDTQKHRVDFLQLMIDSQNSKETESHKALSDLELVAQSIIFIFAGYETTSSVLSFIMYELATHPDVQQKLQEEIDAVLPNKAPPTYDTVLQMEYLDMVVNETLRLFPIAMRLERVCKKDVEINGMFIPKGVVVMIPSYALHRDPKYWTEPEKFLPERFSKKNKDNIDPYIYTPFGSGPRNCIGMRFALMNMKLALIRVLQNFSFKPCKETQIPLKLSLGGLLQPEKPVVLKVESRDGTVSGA

[3] = test system: flumatinib metabolism in RLM; assay: Inhibition of flumatinib metabolism in rat liver microsome incubation (UPLC-MS/MS); conditions: rat, rat liver microsomes
[4] = test system: rat liver microsomes (RLM); assay: Michaelis-Menten kinetics of flumatinib metabolism in RLM; assay type: in vitro ADME; conditions: flumatinib as substrate, RLM 0.4 mg/mL
Experimental: An in vitro liver microsome incubation system was set up, then the drug was added to the system and incubated for […] as to determine the metabolism of the drug by the microsomes. […] The NADPH-free mixture was preincubated at 37°C for 5 min, followed by the addition of 1 mM NADPH to activate the reaction. The mixture was incubated at 37 °C for 40 min until 20 μL of IS solution (200 ng/mL) and 400 μL of cool acetonitrile were added. It was then centrifuged at 13,000 rpm for 5 min. After that, 100 μL of the supernatant was taken to conduct the analysis by UPLC-MS/MS.

[5] = target: recombinant human CYP3A4 (rCYP3A4) (Homo sapiens, UniProt P08684); assay: Inhibition of flumatinib metabolism in recombinant human CYP3A4 incubation (UPLC-MS/MS)
Sequence of recombinant human CYP3A4 (rCYP3A4) (P08684 whole entry): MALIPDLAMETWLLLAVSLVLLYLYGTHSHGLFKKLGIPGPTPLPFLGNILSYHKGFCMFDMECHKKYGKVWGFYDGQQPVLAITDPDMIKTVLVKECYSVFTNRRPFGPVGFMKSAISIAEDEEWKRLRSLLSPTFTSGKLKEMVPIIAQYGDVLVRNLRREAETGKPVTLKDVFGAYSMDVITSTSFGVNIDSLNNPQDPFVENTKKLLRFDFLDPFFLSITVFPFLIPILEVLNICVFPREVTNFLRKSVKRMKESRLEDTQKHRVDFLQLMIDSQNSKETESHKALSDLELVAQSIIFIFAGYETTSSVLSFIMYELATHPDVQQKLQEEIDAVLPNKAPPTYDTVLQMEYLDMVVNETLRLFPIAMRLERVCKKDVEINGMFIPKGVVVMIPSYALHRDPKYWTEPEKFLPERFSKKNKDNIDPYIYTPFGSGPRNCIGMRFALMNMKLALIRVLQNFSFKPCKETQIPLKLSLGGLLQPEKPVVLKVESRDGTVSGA

[6] = target: flumatinib metabolism in HLM (CYP3A4; ketoconazole as positive control) (Homo sapiens, UniProt P08684); assay: Inhibition of flumatinib metabolism in human liver microsome incubation (UPLC-MS/MS); conditions: human liver microsomes, probe flumatinib […] (at Km)
Sequence of flumatinib metabolism in HLM (CYP3A4; ketoconazole as positive control) (P08684 2-503): as the sequence (P08684 2-503) above

[7] = test system: rat liver microsomes (RLM); assay: Inhibition of flumatinib metabolism in rat liver microsome incubation (UPLC-MS/MS); conditions: flumatinib metabolism in RLM
[8] = design: method as in McCarthy et al., 2018; conditions: co-administration with isavuconazole; ref McCarthy et al., 2018; cited from earlier work
[9] = group A: 60 mg/kg flumatinib dosed orally alone
[10] = group B: 20 mg/kg isavuconazole and 60 mg/kg flumatinib dosed orally
[11] = probe flumatinib (2.17 µM in RLM, at Km)
[12] = with 20 mg/kg isavuconazole vs flumatinib alone

For `Cc1ncc(NC(=O)c2ccc(CN3CCNCC3)c(C(F)(F)F)c2)cc1Nc1nccc(-c2cccnc2)n1` [M1, N-desmethyl flumatinib], the “effect of isavuconazole on pharmacokinetic parameters of the metabolite” value ([1]; combination vs control group) was “no effect; also recorded: No statistical significances”, the AUC(0-inf) [1, 9] was 314 ± 134 ng·h/mL and the AUC(0-t) [1, 9] was 282 ± 135 ng·h/mL. It also gave a Cmax [1, 9] of 19.9 ± 32.8 ng/mL, a Tmax [1, 9] of 2.6 ± 1.14 h and a half-life [1, 9] of 5.28 ± 1.24 h. For the same molecule, the CL/F [1, 9] was 3940 mL/min/kg, the MRT last [1, 9] was 6.73 ± 1.68 h and the MRT inf [1, 9] was 8.86 ± 1.39 h. The AUC(0-inf) [1, 10] was 395 ± 63.1 ng·h/mL, the AUC(0-t) [1, 10] was 352 ± 49.8 ng·h/mL and the Cmax [1, 10] was 31.9 ± 3.98 ng/mL. The Tmax [1, 10] was 5 ± 2.45 h, the half-life [1, 10] was 7.29 ± 2.01 h and the CL/F [1, 10] was 2580 mL/min/kg. The MRT last [1, 10] was 8.2 ± 0.19 h and the MRT inf [1, 10] was 11.2 ± 1.53 h.

`OC(Cn1cncn1)(Cn1cncn1)c1ccc(F)cc1F` [fluconazole] gave an IC50 at 40 min [2] of 92.6 µM and an IC50 at 40 min [3, 11] of 24.8 µM.

For `Cc1ncc(NC(=O)c2ccc(CN3CCN(C)CC3)c(C(F)(F)F)c2)cc1Nc1nccc(-c2cccnc2)n1` [flumatinib], the Km [4] was 2.2 µM, the AUC(0-inf) [1, 9] was 3040 ± 664 ng·h/mL and the AUC(0-t) [1, 9] was 2750 ± 887 ng·h/mL. It also gave a Cmax [1, 9] of 282 ± 36.8 ng/mL, a Tmax [1, 9] of 6 ± 2.74 h and a half-life [1, 9] of 4.04 ± 2.65 h. It also gave a CL/F [1, 9] of 340 mL/min/kg, an MRT last [1, 9] of 6.82 ± 1.94 h and an MRT inf [1, 9] of 7.66 ± 2.01 h. The AUC(0-inf) [1, 10] was 5710 ± 744 ng·h/mL, the AUC(0-t) [1, 10] was 4730 ± 1290 ng·h/mL and the Cmax [1, 10] was 481 ± 33.3 ng/mL. For the same molecule, the Tmax [1, 10] was 4.4 ± 1.52 h, the half-life [1, 10] was 4.88 ± 2.91 h and the CL/F [1, 10] was 177 mL/min/kg. The MRT last [1, 10] was 6.87 ± 1.33 h, the MRT inf [1, 10] was 9.2 ± 3.59 h and the “AUC(0–t), group B relative to group A” value [1, 12] was 1.72 fold. For the same molecule, the “AUC(0–∞), group B relative to group A” value [1, 12] was 1.88 fold, the “CLz/F lower than group A” value [1, 12] was 48% and the “Cmax, group B relative to group A” value [1, 12] was 1.70 fold.

With `C[C@@H](c1nc(-c2ccc(C#N)cc2)cs1)[C@](O)(Cn1cncn1)c1cc(F)ccc1F` [isavuconazole] the Inhibition type [5] was “mixed inhibitory mechanisms; also recorded: mixed type; also recorded: a mixture of competitive and non-competitive inhibition; also recorded: Mixed inhibition”, the α [5] was 0.71 and the IC50 at 40 min [6] was 6.66 µM. For the same molecule, the Inhibition type [7] was “mixed inhibitory mechanisms; also recorded: mixed type; also recorded: a mixture of competitive and non-competitive inhibition; also recorded: Mixed inhibition”, the Ki [7] was 1.44 µM and the α [7] was 0.52. For the same molecule, the IC50 at 40 min ([3]; probe flumatinib 2.17 µM (at Km)) was 0.62 µM.

For `CCC(C)n1ncn(-c2ccc(N3CCN(c4ccc(OCC5COC(Cn6cncn6)(c6ccc(Cl)cc6Cl)O5)cc4)CC3)cc2)c1=O` (stereo not drawn) [itraconazole], the IC50 at 40 min [2] was 11.6 µM and the IC50 at 40 min [3, 11] was 1.06 µM.

For `CC(=O)N1CCN(c2ccc(OCC3COC(Cn4ccnc4)(c4ccc(Cl)cc4Cl)O3)cc2)CC1` (stereo not drawn) [ketoconazole], the Inhibition type [7] was “mixed inhibitory mechanisms; also recorded: Mixed inhibition” and the Ki [7] was 0.33 µM.

`CC[C@@H]([C@H](C)O)n1ncn(-c2ccc(N3CCN(c4ccc(OC[C@@H]5CO[C@@](Cn6cncn6)(c6ccc(F)cc6F)C5)cc4)CC3)cc2)c1=O` [posaconazole] gave an IC50 at 40 min ([2]; human liver microsomes, probe flumatinib ([…] in HLM, at Km)) of 1.72 µM and an IC50 at 40 min [3, 11] of 1.53 µM.

For `CO[C@H]1C[C@@H]2CC[C@@H](C)[C@@](O)(O2)C(=O)C(=O)N2CCCC[C@H]2C(=O)O[C@H]([C@H](C)C[C@@H]2CC[C@@H](O)[C@H](OC)C2)CC(=O)[C@H](C)/C=C(\C)[C@@H](O)[C@@H](OC)C(=O)[C@H](C)C[C@H](C)/C=C/C=C/C=C/1C` [sirolimus], the “AUC increase when combined with isavuconazole” value [8] is given as 84%.

In the case of `C=CC[C@@H]1/C=C(\C)C[C@H](C)C[C@H](OC)[C@H]2O[C@@](O)(C(=O)C(=O)N3CCCC[C@H]3C(=O)O[C@H](/C(C)=C/[C@@H]3CC[C@@H](O)[C@H](OC)C3)[C@H](C)[C@@H](O)CC1=O)[C@H](C)C[C@@H]2OC` [tacrolimus], the “AUC increase when combined with isavuconazole” value [8] is given as 125%.

`C[C@@H](c1ncncc1F)[C@](O)(Cn1cncn1)c1ccc(F)cc1F` [voriconazole] gave an IC50 at 40 min [2] of 325 µM and an IC50 at 40 min [3, 11] of 12.4 µM.
